Earlier results, collected in US20040033271A1, “Methods for contemporaneous administration of levamisole and 5-fluorouracil” (priority 2003, published 2004).
Like-named read-outs stand apart in the source and are kept apart here. Blank lines part the entries; values can stand above or below the compound they belong to.

Experiments:
bladder cancer = conditions: rats
Dukes' C. colon cancer = conditions: levamisole alone
[1] = levamisole in humans
[2] = guinea pigs
[3] = not given; remark: listed apart in the source
breast cancer [4] = conditions: post-surgical levamisole, large study
colorectal cancer = conditions: added to leucovorin/5-FU regimen after surgical resection
A375 melanoma cell line = conditions: most sensitive cell line
breast cancer [5] = conditions: superimposed on CAF; no same-day 5-FU and levamisole
[6] = not given; remark: listed apart in the source
[7] = test system: Human colorectal cancer xenografts; conditions: levamisole alone

phosphatase inhibition (phosphatases): capable of inhibiting phosphatases
SMILES: Brc1ccc([C@H]2CN3CCSC3=N2)cc1 [4-bromo analogue of levamisole, 4-bromolevamisole]

SMILES: Oc1ccc([C@H]2CN3CCSC3=N2)cc1 [4-hydroxy analogue of levamisole, 4-hydroxylevamisole]
phosphatase inhibition (phosphatases): capable of inhibiting phosphatases

SMILES: c1ccc([C@@H]2CN3CCSC3=N2)cc1 [Dexamisole]
potentiation of BCNU compared with levamisole (bladder cancer): less active

SMILES: c1ccc([C@H]2CN3CCSC3=N2)cc1 [levamisole]
clinical benefit (Dukes' C. colon cancer): no benefit | adverse effect of increased oral dose (five-fold increase in the recommended oral levamisole dose): severe nausea and vomiting | maximum tolerable dose (oral t.i.d. for five days with daily 5-FU, repeated every five weeks): 100 mg/m^2 | serum half-life [1]: about four | IV dose at which ECG irregularities were seen [2]: 10 mg/kg | time to peak plasma concentration ([3]; after oral levamisole administration): 2 h | difference between the highest and lowest AUC (area under curve) ([3]; twenty cancer patients, oral levamisole 50 mg t.i.d.): seven | recurrence (breast cancer [4]): increase in recurrence | effect of addition of levamisole (colorectal cancer): no additive effect | levamisole concentration affecting colony formation (A375 melanoma cell line; in presence of 5-FU): 30 µg/mL | levamisole concentration affecting colony formation (A375 melanoma cell line; molar value in brackets): 0.125 µM | effect of added levamisole (breast cancer [5]): modest effects over untreated historical controls | time after administration at which cardiac effects are seen ([6]; bolus IV, stated for rats and guinea pigs together): ≤ 60 s | IV dose at which cardiotoxicity was observed (as low as) ([6]; rats, IV): 2 mg/kg | effect on xenografts [7]: unaffected
